Measurements taken from PMC3021320 (FEBS letters, 2010).

Biological target: T1, Janus kinase 3 (JAK3) (Homo sapiens, UniProt P52333)
T1 sequence (P52333 1-1124): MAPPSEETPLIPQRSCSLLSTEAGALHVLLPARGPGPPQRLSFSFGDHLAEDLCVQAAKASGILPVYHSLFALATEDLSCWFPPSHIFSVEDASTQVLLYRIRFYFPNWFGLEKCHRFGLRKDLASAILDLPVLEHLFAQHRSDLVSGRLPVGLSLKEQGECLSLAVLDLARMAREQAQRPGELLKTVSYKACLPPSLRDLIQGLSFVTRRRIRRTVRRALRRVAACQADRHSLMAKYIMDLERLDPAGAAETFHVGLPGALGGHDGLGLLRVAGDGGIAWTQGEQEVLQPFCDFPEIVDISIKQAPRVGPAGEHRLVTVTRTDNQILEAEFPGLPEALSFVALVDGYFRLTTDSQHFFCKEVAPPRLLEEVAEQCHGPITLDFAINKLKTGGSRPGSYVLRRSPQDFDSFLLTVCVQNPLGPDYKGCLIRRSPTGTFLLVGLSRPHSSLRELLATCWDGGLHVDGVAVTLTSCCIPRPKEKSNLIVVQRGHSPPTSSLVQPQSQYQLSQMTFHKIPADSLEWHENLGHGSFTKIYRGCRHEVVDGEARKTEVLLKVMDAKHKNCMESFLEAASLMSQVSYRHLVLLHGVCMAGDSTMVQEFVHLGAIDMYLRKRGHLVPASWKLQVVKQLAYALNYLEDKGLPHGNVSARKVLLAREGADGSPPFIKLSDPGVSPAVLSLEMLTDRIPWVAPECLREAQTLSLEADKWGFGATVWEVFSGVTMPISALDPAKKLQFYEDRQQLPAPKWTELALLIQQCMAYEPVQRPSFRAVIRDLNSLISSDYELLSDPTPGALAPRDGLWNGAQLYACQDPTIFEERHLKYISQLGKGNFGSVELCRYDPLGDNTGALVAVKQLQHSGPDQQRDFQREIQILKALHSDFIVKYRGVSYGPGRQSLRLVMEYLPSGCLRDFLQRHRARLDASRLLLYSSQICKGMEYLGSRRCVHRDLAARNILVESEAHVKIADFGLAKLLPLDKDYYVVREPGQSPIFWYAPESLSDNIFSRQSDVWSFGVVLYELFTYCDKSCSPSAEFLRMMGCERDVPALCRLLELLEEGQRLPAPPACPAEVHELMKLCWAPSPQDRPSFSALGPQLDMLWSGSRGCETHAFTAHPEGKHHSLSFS
Test: kinase assay
Assay type: cell-based

## O=c1cc(-c2ccc(O)cc2)oc2cc(O)cc(O)c12 [apigenin]
  IC50: 1.3 nM
